The text below walks through data of ChEMBL document CHEMBL4118035, “Total Synthesis of the Claimed Structure of (±)-Hyptinin and Structural Revision of Natural Hyptinin” (J Nat Prod, 2017).

This experiment is described as follows: Growth inhibition of ATL patient-derived S1T cells after 72 hrs by WST-8 assay. It is filed as functional. To be noted: Homo sapiens.

Compound `COc1cc(C2C3=C(Cc4c2cc2c(c4OC)OCO2)C(=O)OC3)cc(OC)c1OC` (configuration not stated) yielded an IC50 of 7 nM.
The value for `COc1cc(C2C3=C(Cc4cc5c(cc42)OCO5)C(=O)OC3)cc(OC)c1OC` (configuration not stated) was 5.1 nM.
